Data from patent US12202818B2, “Compounds and methods for CD73 modulation and indications therefor” (Opna Bio SA, priority 2020, dated 2025).

Legend:
human CD73 = biological target: T1, human CD73 (Homo sapiens, UniProt P21589); experiment: Inhibitor activity against CD73 in cell based assay (CD73 expressing CHO-K1 cells); conditions: CHO-K1 cells expressing human CD73, 150 μM AMP, 4 hours of incubation; read-out: CHO-K1 CELL_VARIANT: CD73 IC50
T1 construct: expressed in transfected cells
T1 sequence (P21589 27-549): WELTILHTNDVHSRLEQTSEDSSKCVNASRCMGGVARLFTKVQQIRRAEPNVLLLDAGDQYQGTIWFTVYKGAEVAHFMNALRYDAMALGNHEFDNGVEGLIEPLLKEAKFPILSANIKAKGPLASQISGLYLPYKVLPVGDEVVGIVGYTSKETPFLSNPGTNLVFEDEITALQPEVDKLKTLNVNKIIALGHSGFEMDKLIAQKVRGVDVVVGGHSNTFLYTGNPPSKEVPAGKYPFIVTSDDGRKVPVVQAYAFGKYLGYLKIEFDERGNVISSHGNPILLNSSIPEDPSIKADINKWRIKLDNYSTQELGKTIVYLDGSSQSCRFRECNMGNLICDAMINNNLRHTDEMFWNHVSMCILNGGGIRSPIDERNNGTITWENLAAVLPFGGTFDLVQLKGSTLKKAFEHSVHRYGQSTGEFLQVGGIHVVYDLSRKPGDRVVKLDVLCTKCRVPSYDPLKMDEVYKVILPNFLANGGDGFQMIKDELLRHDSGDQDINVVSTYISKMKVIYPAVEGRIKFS
Procedure, shortened: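 AMP (150 μM) was added alongside 8 titrated compound doses (maximum 10 μM, 1:3 steps) to CHO-K1 cells stably expressing human CD73. After 4 h, supernatant AMP was measured indirectly with CellTiter-Glo 2.0 plus 1 μM ATP (30 min, RT). % inhibition versus high and low controls was fitted nonlinearly for IC50.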

[1] = biological target: T2, Human CD73 (amino acid residues 27-549) (Homo sapiens, UniProt P21589); experiment: CD73 enzymatic assay (luciferase-based indirect assay, CellTiter-Glo); type: biochemical; conditions: 0.4 nM CD73, 150 μM AMP, 1 hour at room temperature
T2 construct: Human CD73 (amino acid residues 27-549); His tag (N); made in house; host or cells: E. coli
T2 sequence (P21589 27-549): T1 sequence (P21589 27-549)
Procedure, shortened: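 Luciferase-coupled readout: AMP left after CD73 turnover suppresses CellTiter-Glo signal (1 μM ATP final, 30 min RT). Reaction beforehand: 150 μM AMP, 0.4 nM E. coli-made His-tagged CD73 residues 27-549, test compound, HEPES pH 7.4 with Tween-20, 1 h RT. % inhibition fitted nonlinearly for IC50.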

Row | IC50 (human CD73) | IC50 [1] | Structure (SMILES)
1 | 0.001 to 10 µM | 0.001 to 10 µM | Cc1noc(C)c1-c1cc(O[C@@H]2CCN(c3cnn(CC(O)CO)c(=O)c3Cl)C2)ncn1 (stereo partly drawn) [P-0140, 4-chloro-2-(2,3-dihydroxypropyl)-5-((R)-3-((6-(3,5-dimethylisoxazol-4-yl)pyrimidin-4-yl)oxy)pyrrolidin-1-yl)pyridazin-3(2H)-one]
2 | 0.001 to 10 µM | 0.001 to 10 µM | Cc1noc(C)c1-c1ccnc(O[C@@H]2CCN(c3cnn(CCCO)c(=O)c3Cl)C2)c1 [P-0090, (R)-4-chloro-5-(3-((4-(3,5-dimethylisoxazol-4-yl)pyridin-2-yl)oxy)pyrrolidin-1-yl)-2-(3-hydroxypropyl)pyridazin-3(2H)-one]
3 | 0.001 to 10 µM | 0.001 to 10 µM | CC1CCCN1c1ccnc(O[C@@H]2CCN(c3cn[nH]c(=O)c3Cl)C2)c1 (stereo partly drawn) [P-0093, 4-chloro-5-((3R)-3-((4-(2-methylpyrrolidin-1-yl)pyridin-2-yl)oxy)pyrrolidin-1-yl)pyridazin-3(2H)-one]
4 | 0.001 to 10 µM | 0.001 to 10 µM | Cc1nn(C)c(C)c1-c1cc(O[C@H]2CN(c3cnn(CCO)c(=O)c3Cl)C[C@@H]2F)ncn1 [P-0144, 4-chloro-5-((3S,4S)-3-fluoro-4-((6-(1,3,5-trimethyl-1H-pyrazol-4-yl)pyrimidin-4-yl)oxy)pyrrolidin-1-yl)-2-(2-hydroxyethyl)pyridazin-3(2H)-one]
5 | 0.001 to 10 µM | 0.001 to 10 µM | Cc1nn(CC2(O)COC2)c(C)c1-c1ccnc(O[C@@H]2CCN(c3cn[nH]c(=O)c3Cl)C2)c1 [P-0065, (R)-4-chloro-5-(3-((4-(1-((3-hydroxyoxetan-3-yl)methyl)-3,5-dimethyl-1H-pyrazol-4-yl)pyridin-2-yl)oxy)pyrrolidin-1-yl)pyridazin-3(2H)-one]
6 | 0.001 to 10 µM | 0.001 to 10 µM | Cc1cc(S(C)(=O)=O)ccc1-c1ccnc(O[C@@H]2CCN(c3cn[nH]c(=O)c3Cl)C2)c1 [P-0081, (R)-4-chloro-5-(3-((4-(2-methyl-4-(methylsulfonyl)phenyl)pyridin-2-yl)oxy)pyrrolidin-1-yl)pyridazin-3(2H)-one]
7 | 0.001 to 10 µM | 0.001 to 10 µM | Cc1noc(C)c1-c1ccnc(O[C@@H]2CCN(c3cn[nH]c(=O)c3Cl)C2)c1 [P-0201, (R)-4-chloro-5-(3-((4-(3,5-dimethylisoxazol-4-yl)pyridin-2-yl)oxy)pyrrolidin-1-yl)pyridazin-3(2H)-one]
8 | 0.001 to 10 µM | 0.001 to 10 µM | CC(=O)C1CC=C(c2ccnc(O[C@@H]3CCN(c4cn[nH]c(=O)c4Cl)C3)c2)CC1 (stereo partly drawn) [P-0068, 5-((3R)-3-((4-(4-acetylcyclohex-1-en-1-yl)pyridin-2-yl)oxy)pyrrolidin-1-yl)-4-chloropyridazin-3(2H)-one]
9 | 0.001 to 10 µM | 0.001 to 10 µM | CC1CCCCN1c1ccnc(O[C@@H]2CCN(c3cn[nH]c(=O)c3Cl)C2)c1 (stereo partly drawn) [P-0094, 4-chloro-5-((3R)-3-((4-(2-methylpiperidin-1-yl)pyridin-2-yl)oxy)pyrrolidin-1-yl)pyridazin-3(2H)-one]
10 | 0.001 to 10 µM | 0.001 to 10 µM | O=c1[nH]ncc(N2CC[C@@H](Oc3cc(C4CCNCC4)ccn3)C2)c1Cl [P-0071, (R)-4-chloro-5-(3-((4-(piperidin-4-yl)pyridin-2-yl)oxy)pyrrolidin-1-yl)pyridazin-3(2H)-one]
11 | 0.001 to 10 µM | 0.001 to 10 µM | O=c1[nH]ncc(N2CC[C@@H](Oc3cc(N4CCC5(CC4)CC(F)(F)C5)ccn3)C2)c1Cl [P-0024, (R)-4-chloro-5-(3-((4-(2,2-difluoro-7-azaspiro[3.5]nonan-7-yl)pyridin-2-yl)oxy)pyrrolidin-1-yl)pyridazin-3(2H)-one]
12 | 0.001 to 10 µM | 0.001 to 10 µM | Cc1noc(C)c1-c1cc(O[C@H]2CN(c3cn[nH]c(=O)c3Cl)C[C@@H]2F)ncn1 [P-0148, 4-chloro-5-((3S,4S)-3-((6-(3,5-dimethylisoxazol-4-yl)pyrimidin-4-yl)oxy)-4-fluoropyrrolidin-1-yl)pyridazin-3(2H)-one]
13 | 0.001 to 10 µM | 0.001 to 10 µM | Cc1c(-c2cc(F)nc(O[C@@H]3CCN(c4cn[nH]c(=O)c4Cl)C3)c2)cnn1C [P-0194, (R)-4-chloro-5-(3-((4-(1,5-dimethyl-1H-pyrazol-4-yl)-6-fluoropyridin-2-yl)oxy)pyrrolidin-1-yl)pyridazin-3(2H)-one]
14 | 0.001 to 10 µM | 0.001 to 10 µM | Cc1nn(C)c(C)c1-c1cnnc(O[C@@H]2CCN(c3cn[nH]c(=O)c3Cl)C2)c1 [P-0156, (R)-4-chloro-5-(3-((5-(1,3,5-trimethyl-1H-pyrazol-4-yl)pyridazin-3-yl)oxy)pyrrolidin-1-yl)pyridazin-3(2H)-one]
15 | 0.001 to 10 µM | 0.001 to 10 µM | O=c1[nH]ncc(N2CC[C@@H](Oc3cc(C4CCOCC4)ccn3)C2)c1Cl [P-0072, (R)-4-chloro-5-(3-((4-(tetrahydro-2H-pyran-4-yl)pyridin-2-yl)oxy)pyrrolidin-1-yl)pyridazin-3(2H)-one]
16 | 0.001 to 10 µM | 0.001 to 10 µM | Cc1nn(C)c(C)c1-c1ccnc(O[C@@H]2CCN(c3cnn(CC(C)O)c(=O)c3Cl)C2)c1 (stereo partly drawn) [P-0126, 4-chloro-2-(2-hydroxypropyl)-5-((R)-3-((4-(1,3,5-trimethyl-1H-pyrazol-4-yl)pyridin-2-yl)oxy)pyrrolidin-1-yl)pyridazin-3(2H)-one]
17 | 0.001 to 10 µM | 0.001 to 10 µM | Cc1nn(C2COC2)c(C)c1-c1cc(O[C@@H]2CCN(c3cnn(CCO)c(=O)c3Cl)C2)ncc1F [P-0020, (R)-4-chloro-5-(3-((4-(3,5-dimethyl-1-(oxetan-3-yl)-1H-pyrazol-4-yl)-5-fluoropyridin-2-yl)oxy)pyrrolidin-1-yl)-2-(2-hydroxyethyl)pyridazin-3(2H)-one]
18 | 0.001 to 10 µM | 0.001 to 10 µM | O=C(O)C1CCC(c2ccnc(O[C@@H]3CCN(c4cn[nH]c(=O)c4Cl)C3)c2)CC1 (stereo partly drawn) [P-0047, (R)-4-(2-((1-(5-chloro-6-oxo-1,6-dihydropyridazin-4-yl)pyrrolidin-3-yl)oxy)pyridin-4-yl)cyclohexane-1-carboxylic acid]
19 | 0.001 to 10 µM | 0.001 to 10 µM | COc1cc(S(=O)(=O)NC2CC2)ccc1-c1ccnc(O[C@@H]2CCN(c3cn[nH]c(=O)c3Cl)C2)c1 [P-0227, (R)-4-(2-((1-(5-chloro-6-oxo-1,6-dihydropyridazin-4-yl)pyrrolidin-3-yl)oxy)pyridin-4-yl)-N-cyclopropyl-3-methoxybenzenesulfonamide]
20 | 0.001 to 10 µM | 0.001 to 10 µM | Cc1nn(CC(C)(C)O)c(C)c1-c1cc(F)nc(O[C@@H]2CCN(c3cn[nH]c(=O)c3Cl)C2)c1 [P-0186, (R)-4-chloro-5-(3-((6-fluoro-4-(1-(2-hydroxy-2-methylpropyl)-3,5-dimethyl-1H-pyrazol-4-yl)pyridin-2-yl)oxy)pyrrolidin-1-yl)pyridazin-3(2H)-one]
21 | 10 to 100 µM | 0.001 to 10 µM | O=c1c(Cl)c(N2CC[C@@H](Oc3cc(N4[C@@H]5CC[C@H]4CC(F)(F)C5)ccn3)C2)cnn1CCO [P-0107, 4-chloro-5-((R)-3-((4-((1R,5S)-3,3-difluoro-8-azabicyclo[3.2.1]octan-8-yl)pyridin-2-yl)oxy)pyrrolidin-1-yl)-2-(2-hydroxyethyl)pyridazin-3(2H)-one]
22 | 10 to 100 µM | 0.001 to 10 µM | N#Cc1cc(O[C@@H]2CCN(c3cn[nH]c(=O)c3Cl)C2)nc(N2CCCC2)c1 [P-0253, (R)-2-((1-(5-chloro-6-oxo-1,6-dihydropyridazin-4-yl)pyrrolidin-3-yl)oxy)-6-(pyrrolidin-1-yl)isonicotinonitrile]
23 | 0.001 to 10 µM | 0.001 to 10 µM | Cc1nn(C)c(C)c1-c1ccnc(O[C@@H]2CCN(c3cn[nH]c(=O)c3Cl)C2)c1 [P-0203, (R)-4-chloro-5-(3-((4-(1,3,5-trimethyl-1H-pyrazol-4-yl)pyridin-2-yl)oxy)pyrrolidin-1-yl)pyridazin-3(2H)-one]
24 | 0.001 to 10 µM | 0.001 to 10 µM | Cc1nn(C)c(C)c1-c1cc(O[C@H]2CN(c3cnn(CCO)c(=O)c3Cl)C[C@@H]2F)ccn1 [P-0119, 4-chloro-5-((3S,4S)-3-fluoro-4-((2-(1,3,5-trimethyl-1H-pyrazol-4-yl)pyridin-4-yl)oxy)pyrrolidin-1-yl)-2-(2-hydroxyethyl)pyridazin-3(2H)-one]
25 | 0.001 to 10 µM | 0.001 to 10 µM | Cc1nn(CCO)c(C)c1-c1ccnc(O[C@@H]2CCN(c3cn[nH]c(=O)c3Cl)C2)c1 [P-0076, (R)-4-chloro-5-(3-((4-(1-(2-hydroxyethyl)-3,5-dimethyl-1H-pyrazol-4-yl)pyridin-2-yl)oxy)pyrrolidin-1-yl)pyridazin-3(2H)-one]
